The target of one test is EGFR (ErbB1) (Homo sapiens (Human), UniProt P00533). Put plainly: Z'-LYTE kinase inhibition assay, EGFR. It counts as biochemical. To be noted: read-out: % inhibition against EGFR (Compound at 0.041 μM). The protocol: Inhibitory activities of compounds against BTK, EGFR and EGFR mutants (EGFR L858R, EGFR T790M, EGFR L858R/T790M), FGFR1, FGFR2, JAK2, JAK3 and KDR were measured by Invitrogen using Z'-LYTE® Method as briefly described in the following. Test Compounds are screened in 1% DMSO (final) in the well. For 10 point titrations, 3-fold serial dilutions are conducted from the starting concentration. All ATP Solutions are diluted to a 4× working concentration in Kinase Buffer (50 mM HEPES pH 7.5, 0.01% BRIJ-35, 10 mM MgCl2, 1 mM EGTA). Peptide/Kinase Mixtures are diluted to a 2× working concentration in the appropriate Kinase Buffers as described below. (i) Peptide/Kinase Mixtures for Measurement of EGFR (ErbB1): The 2×EGFR (ErbB1)/[…] mixture is prepared in 50 mM HEPES pH 7.5, 0.01% BRIJ-35, 10 mM MgCl2. 4 mM MnCl2, 1 mM EGTA, 2 mM DTT. The final 10 μL Kinase Reaction consists of 1.1-5.25 ng EGFR (ErbB1) and 2 μM […] in 50 mM HEPES pH 7.5, 0.01% BRIJ-35, 10 mM MgCl2, 2 mM MnCl2. 1 mM EGTA, 1 mM DTT. After the 1 hour Kinase Reaction incubation, 5 μL of a 1:64 dilution of Development Reagent B is added. Reaction starts by 30-second shaking of mixture consisting of 2.5 μL 4× test compound, […] 2× kinase reaction mixture and 2.5 μL 4×ATP Solution on Bar-coded Corning, low volume NBS, black 384-well plate (Corning Cat. #3676). Then the mixture is incubated for 60-minute at room temperature for the kinase reaction, followed by addition of 5 μL of a 1:1024 dilution of development reagent A and 30-second plate shake. The mixture is then incubated for another 60-minute at room temperature for development reaction. Finally fluorescence is read by plate reader. To determine IC50 of a compound against EGFR, EGFR mutant and other kinases, a series of concentrations of the compound were tested for the inhibition.
EGFR (ErbB1), sequence (P00533 25-1210): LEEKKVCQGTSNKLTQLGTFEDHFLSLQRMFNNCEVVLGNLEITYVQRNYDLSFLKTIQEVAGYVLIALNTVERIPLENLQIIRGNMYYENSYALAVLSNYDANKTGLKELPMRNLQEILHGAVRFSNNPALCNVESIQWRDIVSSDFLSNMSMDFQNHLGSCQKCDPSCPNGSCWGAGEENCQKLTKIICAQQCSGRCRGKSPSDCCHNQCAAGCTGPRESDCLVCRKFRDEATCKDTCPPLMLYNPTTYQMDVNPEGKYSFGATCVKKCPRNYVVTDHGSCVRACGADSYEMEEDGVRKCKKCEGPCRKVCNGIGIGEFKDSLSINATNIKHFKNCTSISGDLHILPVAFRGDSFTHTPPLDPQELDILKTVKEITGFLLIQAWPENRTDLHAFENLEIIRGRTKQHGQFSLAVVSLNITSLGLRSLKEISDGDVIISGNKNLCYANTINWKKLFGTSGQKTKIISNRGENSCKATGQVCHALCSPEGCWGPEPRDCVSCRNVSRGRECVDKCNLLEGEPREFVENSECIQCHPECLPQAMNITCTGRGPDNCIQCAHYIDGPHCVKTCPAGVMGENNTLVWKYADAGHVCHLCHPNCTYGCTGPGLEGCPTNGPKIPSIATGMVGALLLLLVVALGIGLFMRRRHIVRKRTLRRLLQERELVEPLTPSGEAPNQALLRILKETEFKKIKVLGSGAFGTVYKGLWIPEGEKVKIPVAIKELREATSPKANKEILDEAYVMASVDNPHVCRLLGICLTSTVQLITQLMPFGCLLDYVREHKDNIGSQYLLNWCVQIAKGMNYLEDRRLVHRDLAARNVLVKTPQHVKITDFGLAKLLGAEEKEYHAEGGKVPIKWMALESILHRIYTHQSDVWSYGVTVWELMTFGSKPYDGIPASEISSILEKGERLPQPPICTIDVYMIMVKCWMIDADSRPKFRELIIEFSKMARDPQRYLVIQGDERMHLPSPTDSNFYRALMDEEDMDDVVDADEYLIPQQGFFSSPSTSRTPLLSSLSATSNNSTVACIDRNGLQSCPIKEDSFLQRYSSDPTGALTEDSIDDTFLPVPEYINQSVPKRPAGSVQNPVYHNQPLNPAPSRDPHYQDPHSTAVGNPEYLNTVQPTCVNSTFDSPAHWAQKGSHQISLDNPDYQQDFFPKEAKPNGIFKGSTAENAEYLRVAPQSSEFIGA

The target in a further test is EGFR (ErbB1) T790M L858R (Homo sapiens (Human), UniProt P00533, L858R/T790M). Nature of the test: Z'-LYTE kinase inhibition assay, EGFR L858R/T790M. It counts as biochemical. The conditions noted are these: read-out: % inhibition against EGFR L858R/T790M (Compound at 0.0137 μM). How it is done: Inhibitory activities of compounds against BTK, EGFR and EGFR mutants (EGFR L858R, EGFR T790M, EGFR L858R/T790M), FGFR1, FGFR2, JAK2, JAK3 and KDR were measured by Invitrogen using Z'-LYTE® Method as briefly described in the following. Test Compounds are screened in 1% DMSO (final) in the well. For 10 point titrations, 3-fold serial dilutions are conducted from the starting concentration. All ATP Solutions are diluted to a 4× working concentration in Kinase Buffer (50 mM HEPES pH 7.5, 0.01% BRIJ-35, 10 mM MgCl2, 1 mM EGTA). Peptide/Kinase Mixtures are diluted to a 2× working concentration in the appropriate Kinase Buffers as described below. (iv) Peptide/Kinase Mixtures for Measurement of EGFR (ErbB1) T790M L858R: The 2×EGFR (ErbB1) […] mixture is prepared in 50 mM HEPES pH 6.5, 0.01% BRIJ-35, 10 mM MgCl2, 1 mM EGTA, 0.02% NaN3. […] After the 1 hour Kinase Reaction incubation, 5 μL of a 1:64 dilution of Development Reagent B is added. Reaction starts by 30-second shaking of mixture consisting of 2.5 μL 4× test compound, […] 2× kinase reaction mixture and 2.5 μL 4×ATP Solution on Bar-coded Corning, low volume NBS, black 384-well plate (Corning Cat. #3676). Then the mixture is incubated for 60-minute at room temperature for the kinase reaction, followed by addition of 5 μL of a 1:1024 dilution of development reagent A and 30-second plate shake. The mixture is then incubated for another 60-minute at room temperature for development reaction. Finally fluorescence is read by plate reader. To determine IC50 of a compound against EGFR, EGFR mutant and other kinases, a series of concentrations of the compound were tested for the inhibition.
EGFR (ErbB1) T790M L858R, sequence (P00533 25-1210 T790M/L858R): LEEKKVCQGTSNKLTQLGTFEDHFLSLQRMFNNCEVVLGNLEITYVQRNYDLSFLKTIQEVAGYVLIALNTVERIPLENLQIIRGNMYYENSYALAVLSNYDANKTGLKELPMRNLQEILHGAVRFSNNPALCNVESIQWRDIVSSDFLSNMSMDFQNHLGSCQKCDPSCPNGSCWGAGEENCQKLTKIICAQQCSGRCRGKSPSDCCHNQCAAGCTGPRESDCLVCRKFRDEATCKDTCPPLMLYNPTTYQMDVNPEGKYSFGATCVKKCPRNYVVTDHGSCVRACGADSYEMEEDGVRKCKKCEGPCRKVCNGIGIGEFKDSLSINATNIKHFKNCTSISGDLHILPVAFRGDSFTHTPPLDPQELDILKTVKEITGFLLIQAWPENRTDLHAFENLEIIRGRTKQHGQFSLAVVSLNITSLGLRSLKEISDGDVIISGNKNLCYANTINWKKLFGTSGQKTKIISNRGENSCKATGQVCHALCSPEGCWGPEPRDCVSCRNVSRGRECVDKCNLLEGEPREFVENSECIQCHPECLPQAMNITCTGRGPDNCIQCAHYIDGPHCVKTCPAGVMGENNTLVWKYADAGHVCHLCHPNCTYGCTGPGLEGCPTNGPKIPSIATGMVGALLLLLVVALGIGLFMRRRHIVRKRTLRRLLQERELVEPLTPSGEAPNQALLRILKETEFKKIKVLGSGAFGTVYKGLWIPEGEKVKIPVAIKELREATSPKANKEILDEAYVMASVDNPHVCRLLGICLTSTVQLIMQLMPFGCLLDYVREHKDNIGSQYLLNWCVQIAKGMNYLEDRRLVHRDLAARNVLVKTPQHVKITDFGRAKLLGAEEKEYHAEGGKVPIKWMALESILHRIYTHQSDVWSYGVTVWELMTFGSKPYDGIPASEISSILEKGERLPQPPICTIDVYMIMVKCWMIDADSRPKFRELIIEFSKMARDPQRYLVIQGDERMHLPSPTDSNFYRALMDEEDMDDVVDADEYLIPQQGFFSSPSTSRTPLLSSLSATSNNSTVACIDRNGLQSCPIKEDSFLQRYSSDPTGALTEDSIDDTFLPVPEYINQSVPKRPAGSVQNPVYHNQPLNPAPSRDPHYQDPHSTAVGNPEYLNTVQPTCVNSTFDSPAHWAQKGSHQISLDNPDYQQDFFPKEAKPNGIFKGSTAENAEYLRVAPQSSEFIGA

Another test has as its system H1975 cells. Put plainly: Inhibition of cancer cell growth, MTT assay, H1975. To be noted: Homo sapiens, NCI-H1975, 72 h, read-out: IC50 in H1975 cells.

As usually defined, the IC50 is the concentration that inhibits the measured activity by half.

In the case of `C=CC(=O)Nc1cccc(-c2cccc3cnc(Nc4ccc(-n5ccnc5)cc4)nc23)c1` [Example C094, N-(3-(2-((4-(1H-imidazol-1-yl)phenyl)amino)quinazolin-8-yl)phenyl)acrylamide], the inhibition at 0.041 µM on EGFR (ErbB1) is less than 50%. The inhibition at 0.0137 µM on EGFR (ErbB1) T790M L858R is less than 50%. In addition, in the test on H1975 cells, the IC50 was 100 to 500 nM.

As for `C=CC(=O)Nc1cccc(-c2cccc3cnc(Nc4ccc(N5CCOCC5=O)cc4)nc23)c1` [Example C095, N-(3-(2-((4-(3-oxomorpholino)phenyl)amino)quinazolin-8-yl)phenyl)acrylamide], on EGFR (ErbB1), the inhibition at 0.041 µM was less than 50%. In addition, at EGFR (ErbB1) T790M L858R, the inhibition at 0.0137 µM was less than 50%. Further, the IC50 with H1975 cells is 100 to 500 nM.

As to `C=CC(=O)Nc1cccc(-c2cccc3cnc(Nc4ccc(N5CCCC5=O)cc4)nc23)c1` [Example C096, N-(3-(2-((4-(2-oxopyrrolidin-1-yl)phenyl)amino)quinazolin-8-yl)phenyl)acrylamide], the inhibition at 0.041 µM on EGFR (ErbB1) is less than 50%. Moreover, the inhibition at 0.0137 µM on EGFR (ErbB1) T790M L858R was less than 50%. In addition, the IC50 in the test with H1975 cells was less than 100 nM.

On to `C=CC(=O)Nc1cccc(-c2cccc3cnc(Nc4ccc(N5CCNC5=O)cc4)nc23)c1` [Example C097, N-(3-(2-((4-(2-oxoimidazolidin-1-yl)phenyl)amino)quinazolin-8-yl)phenyl)acrylamide], for which the inhibition at 0.041 µM on EGFR (ErbB1) was less than 50%. Moreover, the inhibition at 0.0137 µM at EGFR (ErbB1) T790M L858R was less than 50%. Moreover, the IC50 with H1975 cells lay in the range of 100 to 500 nM.

Regarding `C=CC(=O)Nc1cccc(-c2cccc3cnc(Nc4ccc(N5CCC(O)C5)cc4)nc23)c1` (stereo not drawn) [Example C098, N-(3-(2-((4-(3-hydroxypyrrolidin-1-yl)phenyl)amino)quinazolin-8-yl)phenyl)acrylamide], the inhibition at 0.041 µM at EGFR (ErbB1) was less than 50%. The inhibition at 0.0137 µM on EGFR (ErbB1) T790M L858R is less than 50%. For the same compound, in the test with H1975 cells, the IC50 is less than 100 nM.

As for `C=CC(=O)Nc1ccc(C#N)c(-c2cccc3cnc(Nc4ccc(N5CCN(C)CC5)cc4)nc23)c1` [Example C100, N-(4-cyano-3-(2-((4-(4-methylpiperazin-1-yl)phenyl)amino)quinazolin-8-yl)phenyl)acrylamide], the inhibition at 0.041 µM at EGFR (ErbB1) is less than 50%. Also, the inhibition at 0.0137 µM at EGFR (ErbB1) T790M L858R is less than 50%. The IC50 in the test with H1975 cells is more than 500 nM.

As for `C=CC(=O)Nc1cccc(-c2cccc3cnc(Nc4ccc(N5CCN(C)CC5)cc4)nc23)c1C(=O)OC` [Example C101, methyl 2-acrylamido-6-(2-((4-(4-methylpiperazin-1-yl)phenyl)amino)quinazolin-8-yl)benzoate], the inhibition at 0.041 µM on EGFR (ErbB1) was less than 50%. For the same compound, the inhibition at 0.0137 µM on EGFR (ErbB1) T790M L858R is more than 50%. The IC50 in the test with H1975 cells is less than 100 nM.

For `C=CC(=O)Nc1cccc(-c2cccc3cnc(Nc4ccc(N5CCCOCC5)cc4)nc23)c1` [Example C102, N-(3-(2-((4-(1,4-oxazepan-4-yl)phenyl)amino)quinazolin-8-yl)phenyl)acrylamide], the inhibition at 0.041 µM on EGFR (ErbB1) is less than 50%. In addition, the inhibition at 0.0137 µM at EGFR (ErbB1) T790M L858R is less than 50%. For the same compound, in the test on H1975 cells, the IC50 is less than 100 nM.

For the compound `C=CC(=O)Nc1cccc(-c2cccc3cnc(Nc4ccc(N5CCN(C)CC5)cc4C(=O)OC)nc23)c1` [Example C104, methyl 2-((8-(3-acrylamidophenyl)quinazolin-2-yl)amino)-5-(4-methylpiperazin-1-yl)benzoate], the inhibition at 0.041 µM on EGFR (ErbB1) was less than 50%. The inhibition at 0.0137 µM at EGFR (ErbB1) T790M L858R is less than 50%. The IC50 in the test with H1975 cells is more than 500 nM.

For `C=CC(=O)Nc1cccc(-c2cccc3cnc(Nc4ccc(N[C@H]5CCN(C(C)=O)C5)cc4)nc23)c1` [Example C128, (S)-N-(3-(2-((4-((1-acetylpyrrolidin-3-yl)amino)phenyl)amino)quinazolin-8-yl)phenyl)acrylamide], on EGFR (ErbB1), the inhibition at 0.041 µM was less than 50%. For the same compound, the inhibition at 0.0137 µM on EGFR (ErbB1) T790M L858R was less than 50%. In addition, in the test on H1975 cells, the IC50 is less than 100 nM.

Regarding `C=CC(=O)Nc1cccc(-c2cccc3cnc(Nc4ccc(N[C@@H]5CCN(C(C)=O)C5)cc4)nc23)c1` [Example C130, (R)-N-(3-(2-((4-((1-acetylpyrrolidin-3-yl)amino)phenyl)amino)quinazolin-8-yl)phenyl)acrylamide], the inhibition at 0.041 µM on EGFR (ErbB1) was less than 50%. Further, the inhibition at 0.0137 µM at EGFR (ErbB1) T790M L858R is less than 50%. The IC50 in the test with H1975 cells was less than 100 nM.

With `C=CC(=O)Nc1cccc(-c2cccc3cnc(Nc4ccc(O[C@H]5CCN(C(C)=O)C5)cc4)nc23)c1` [Example C131, (S)-N-(3-(2-((4-((1-acetylpyrrolidin-3-yl)oxy)phenyl)amino)quinazolin-8-yl)phenyl)acrylamide], on EGFR (ErbB1), the inhibition at 0.041 µM was less than 50%. Besides, the inhibition at 0.0137 µM at EGFR (ErbB1) T790M L858R was less than 50%. Besides, the IC50 in the test with H1975 cells was less than 100 nM.

In the case of `C=CC(=O)Nc1cc(-c2cccc3cnc(Nc4ccc(N5CCN(C)CC5)cc4)nc23)n[nH]1` [Example C132, N-(3-(2-((4-(4-methylpiperazin-1-yl)phenyl)amino)quinazolin-8-yl)-1H-pyrazol-5-yl)acrylamide], on EGFR (ErbB1), the inhibition at 0.041 µM is less than 50%. The inhibition at 0.0137 µM on EGFR (ErbB1) T790M L858R is less than 50%. Besides, the IC50 in the test with H1975 cells fell in the range of 100 to 500 nM.

In the case of `C=CC(=O)Nc1cccc(-c2cccc3cnc(Nc4ccc(O[C@@H]5CCN(C(C)=O)C5)cc4)nc23)c1` [Example C133, (R)-N-(3-(2-((4-((1-acetylpyrrolidin-3-yl)oxy)phenyl)amino)quinazolin-8-yl)phenyl)acrylamide], on EGFR (ErbB1), the inhibition at 0.041 µM was less than 50%. Moreover, the inhibition at 0.0137 µM on EGFR (ErbB1) T790M L858R is less than 50%. In addition, the IC50 in the test on H1975 cells fell in the range of 100 to 500 nM.

Take `C=CC(=O)Nc1cccc(-c2cccc3cnc(Nc4ccc(NCCF)cc4)nc23)c1` [Example C134, N-(3-(2-((4-((2-fluoroethyl)amino)phenyl)amino)quinazolin-8-yl)phenyl)acrylamide]: the inhibition at 0.041 µM at EGFR (ErbB1) is less than 50%. For the same compound, the inhibition at 0.0137 µM at EGFR (ErbB1) T790M L858R is less than 50%. In addition, the IC50 in the test with H1975 cells is less than 100 nM.

For the compound `C=CC(=O)Nc1cccc(-c2cccc3cnc(Nc4ccc(NCC(F)F)cc4)nc23)c1` [Example C135, N-(3-(2-((4-((2,2-difluoroethyl)amino)phenyl)amino)quinazolin-8-yl)phenyl)acrylamide], at EGFR (ErbB1), the inhibition at 0.041 µM was less than 50%. Also, the inhibition at 0.0137 µM on EGFR (ErbB1) T790M L858R was less than 50%. For the same compound, the IC50 in the test with H1975 cells is less than 100 nM.

As to `C=CC(=O)Nc1cccc(-c2cccc3cnc(Nc4ccc(N5CCN(CC(C)(C)O)CC5)c(F)c4)nc23)c1` [Example C143, N-(3-(2-((3-fluoro-4-(4-(2-hydroxy-2-methylpropyl)piperazin-1-yl)phenyl)amino)quinazolin-8-yl)phenyl)acrylamide], the inhibition at 0.041 µM on EGFR (ErbB1) is less than 50%. In addition, the inhibition at 0.0137 µM on EGFR (ErbB1) T790M L858R is more than 50%. Moreover, the half-inhibitory concentration (IC50) in the test with H1975 cells was less than 100 nM.

For `C=CC(=O)Nc1cccc(-c2cccc3cnc(Nc4ccc(OC5CCN(CCO)CC5)cc4F)nc23)c1` [Example C144, N-(3-(2-((2-fluoro-4-((1-(2-hydroxyethyl)piperidin-4-yl)oxy)phenyl)amino)quinazolin-8-yl)phenyl)acrylamide], the inhibition at 0.041 µM on EGFR (ErbB1) was more than 50%. The inhibition at 0.0137 µM on EGFR (ErbB1) T790M L858R is more than 50%. Moreover, the IC50 in the test with H1975 cells was less than 100 nM.
